In ChEMBL document CHEMBL1201862, “PubChem BioAssay data set” (2004) one finds AC50, EC50 and IC50 data, which are given here for 6 molecules.

The structures appear in SMILES notation. Activity calls are given as the source filed them.

Assay [1] in a line: off-target signal loss in HeLa-CEM21 co-culture – HeLa F-luc CTL cells, cherry-picked, counter-screen for HIV-1 Env fusion inhibitor project, dose response (AID 652040).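 Note: potency for signal decrease marking cytotoxic or nonspecific inhibition.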 It counts as functional, cell-based.
A short description of assay [2]: inhibitors of clade B AD8 Env fusion, dose response, cell-based, cherry-pick (AID 652062).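 Note: luciferase signal from cell-cell fusion driven by HIV-1 clade B AD8 Env; potency is for inhibitors of fusion seen as a drop in luminescence.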 It counts as functional.
The next assay addresses Caspase-7 (Homo sapiens, UniProt P55210). The experiment in a line: human caspase-7 inhibitors, dose response, selectivity assay for caspase-6 inhibitor project, biochemical, DEVD-R110 fluorescence, cherry-pick (AID 743295). It counts as […].
Assay [3] in a line: CEM21 lymphoblast cell cytotoxicity, dose response, cytotoxicity control for viral fusion inhibitor project, CellTiter-Glo luminescence, cherry-picked (AID 652042).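 Note: potency for signal decrease meaning cytotoxicity.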 The class given is functional, cell-based.
Assay [4] can be described thus: Shn3 3'UTR reporter inhibitors, dose response, cell-based, Clone20 osteoblasts, firefly luciferase, cherry-picked (AID 624132).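 Note: firefly luciferase luminescence from reporter carrying the Shn3 3'UTR in osteoblasts.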 The class given is functional.
Assay [5] is described as follows: control 3'UTR Renilla luciferase suppression, dose response, counter-screen for Shn3 inhibitor project, cell-based, Clone20-Shn3RL, cherry-picked (AID 624133). It counts as functional. On the technique in general: A counterscreen serves to expose hits that act by an unwanted route or on another target.
A short description of assay [6]: HepG2 cell cytotoxicity, dose response, cytotoxicity control for Shn3 inhibitor project, CellTiter-Glo, cherry-picked (AID 624134). It counts as functional, cell-based. On the technique in general: Cellular ATP, detected with luciferase, serves as a proxy for viable cell number.
Assay [7] in a line: inhibitors of HIV Env-driven cell fusion, dose response, cherry-pick (AID 652057). The class given is functional, cell-based.
The next assay addresses T1, Caspase-6 (Homo sapiens, UniProt P55212).
T1 sequence (P55212 whole entry): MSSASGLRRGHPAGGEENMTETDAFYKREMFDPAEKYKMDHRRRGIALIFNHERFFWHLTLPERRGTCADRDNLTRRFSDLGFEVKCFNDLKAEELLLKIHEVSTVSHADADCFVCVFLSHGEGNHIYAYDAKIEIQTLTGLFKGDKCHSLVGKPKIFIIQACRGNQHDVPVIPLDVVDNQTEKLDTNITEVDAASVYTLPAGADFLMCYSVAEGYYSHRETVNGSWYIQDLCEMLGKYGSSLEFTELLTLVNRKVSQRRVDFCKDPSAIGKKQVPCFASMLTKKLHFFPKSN
Briefly: human caspase-6 inhibitors, dose response, biochemical, VEID-R110 fluorescence, cherry-pick (AID 720632).

Another assay addresses Caspase-8 (Homo sapiens, UniProt Q14790). Briefly: caspase-8 inhibition counter-screen, dose response, selectivity assay for caspase-6 inhibitor project, biochemical, Z-IETD-R110 fluorescence, cherry-picked samples (AID 743294).
A short description of assay [8]: non-specific cell cytotoxicity, dose response, cytotoxicity control for PAX8 inhibitor project, plate reader, dry powder samples (AID 743021). The class given is functional, cell-based.
A short description of assay [9]: cytotoxicity in COV434 cells, dose response, cytotoxicity control for PAX8 inhibitor project, cell-based, plate reader, dry powder, SA7 (AID 743145). It counts as functional.
Assay [10] in a line: IGROV1 ovarian cancer cell cytotoxicity, dose response, PAX8 inhibitor project, plate reader, dry powder samples (AID 743043). The class given is functional, cell-based. The following applies: IGROV-1.
The nature of assay [11]: cytotoxicity in OVCAR4 cells, dose response, cytotoxicity control for PAX8 inhibitor project, cell-based, plate reader, dry powder, SA11 (AID 743150). The note with it: OVCAR-4. It counts as functional.
Assay [12] is described as follows: cytotoxicity in COV362 ovarian cancer cells, dose response, cytotoxicity control for PAX8 inhibitor project, cell-based, plate reader, dry powder, SA12 (AID 743144). The class given is functional.
The nature of assay [13]: PAX5 activity inhibitors, dose response, selectivity assay for PAX8 inhibitor project, cell-based, plate reader, dry powder samples (AID 743047).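 Note: HEK293 cells carrying a Pax5 driven CD19 promoter luciferase reporter; potency of inhibitors that lower reporter luminescence.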 The class given is functional.
Assay [14] can be described thus: cytotoxicity in OV-90 ovarian cancer cells, dose response, PAX8 inhibitor project, cell-based, plate reader, dry powder, SA8 (AID 743149). It counts as functional.
The nature of assay [15]: IOSE-T80 ovarian epithelial cell cytotoxicity, dose response, cytotoxicity control for PAX8 inhibitor project, plate reader, dry powder samples (AID 743045). It counts as functional, cell-based.
The next assay has as its target Paired box protein Pax-8 (Homo sapiens, UniProt Q06710). The experiment in a line: inhibitors of PAX8-driven TPO luciferase reporter, dose response, RMG-I cells, cherry-pick (AID 687027).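 Note: luciferase reporter driven by Pax8 target thyroperoxidase promoter measured by SteadyGlo luminescence.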 It counts as functional, cell-based. For orientation: In a reporter assay the amount or activity of a reporter protein is the signal.
A short description of assay [16]: PAX2 cell-based inhibition, dose response, selectivity assay for PAX8 inhibitor project, plate reader, dry powder samples (AID 743048).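 Note: HEK293 cells carrying a WT1 promoter luciferase reporter driven by expressed Pax2; potency is for inhibition of Pax2 driven reporter signal.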 The class given is functional.
Assay [17] in a line: cytotoxicity dependent on PAX8, dose response, cell-based, plate reader, dry powder (AID 743049). The class given is functional.
A further assay concerns the target Transthyretin (Homo sapiens, UniProt P02766). The experiment in a line: Luminescence-based cell-based high throughput dose response assay to identify activators of Transthyretin (TTR) transcription. The class given is functional.
The nature of assay [18]: cytotoxicity toward NIH3T3 fibroblasts, dose response, counter-screen, cell-based, ATP luminescence, mouse fibroblasts (AID 2010).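 Note: cells exposed to compound for about 90 hours before reading.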 It counts as functional.
In another assay the target is T2, Estrogen receptor (Homo sapiens, UniProt P03372).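 Note: potency for inhibiting coactivator peptide recruitment to the receptor.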
T2 sequence (P03372 whole entry): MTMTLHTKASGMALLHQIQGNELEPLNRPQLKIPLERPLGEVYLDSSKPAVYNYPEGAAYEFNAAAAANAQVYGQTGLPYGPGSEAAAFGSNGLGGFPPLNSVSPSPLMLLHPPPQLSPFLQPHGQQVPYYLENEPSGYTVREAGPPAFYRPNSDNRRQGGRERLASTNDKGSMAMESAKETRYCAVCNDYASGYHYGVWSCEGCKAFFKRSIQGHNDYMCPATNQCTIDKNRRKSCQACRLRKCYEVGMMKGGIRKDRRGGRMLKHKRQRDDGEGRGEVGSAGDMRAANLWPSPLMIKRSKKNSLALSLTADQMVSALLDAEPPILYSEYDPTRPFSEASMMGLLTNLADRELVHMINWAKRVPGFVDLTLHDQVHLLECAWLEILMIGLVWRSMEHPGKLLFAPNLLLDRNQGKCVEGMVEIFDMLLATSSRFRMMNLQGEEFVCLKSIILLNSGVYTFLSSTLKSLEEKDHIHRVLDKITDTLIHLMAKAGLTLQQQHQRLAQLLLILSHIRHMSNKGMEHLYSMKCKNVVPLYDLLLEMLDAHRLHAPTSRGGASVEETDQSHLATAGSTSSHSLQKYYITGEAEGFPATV

Assay [19] can be described thus: inhibitors of intracellular T. cruzi replication, confirmation, NIH3T3 host cells, beta-gal luminescence (AID 2044).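 Note: intracellular parasites grown in NIH/3T3 mouse fibroblasts as host cells; luminescent beta-galactosidase reporter signal from transgenic T. cruzi replicating inside host cells; inhibitors lower the luminescence signal.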 The class given is functional, cell-based.
Assay [20] in a line: CEM21 cell cytotoxicity, dose response, cytotoxicity control, plate reader, dry powder (AID 687026). The class given is functional, cell-based.
Assay [21] is described as follows: ZM109 Env clade C HIV-1 fusion inhibitors, dose response, HeLa effector, CEM target cells, luciferase, cherry-pick (AID 652058). It counts as functional, cell-based.
The target in assay [22] is T3, Polyadenylate-binding protein 1 (Homo sapiens, UniProt P11940). Briefly: PABP1 MLLE–PAM2 interaction inhibitors, dose response, miRNA deadenylation inhibitor project, biochemical, fluorescence polarization, Cy5-PAM2 peptide, secondary (AID 602260). The class given is functional. The note with it: read-out: IC50_Mean.
T3 sequence (P11940 whole entry): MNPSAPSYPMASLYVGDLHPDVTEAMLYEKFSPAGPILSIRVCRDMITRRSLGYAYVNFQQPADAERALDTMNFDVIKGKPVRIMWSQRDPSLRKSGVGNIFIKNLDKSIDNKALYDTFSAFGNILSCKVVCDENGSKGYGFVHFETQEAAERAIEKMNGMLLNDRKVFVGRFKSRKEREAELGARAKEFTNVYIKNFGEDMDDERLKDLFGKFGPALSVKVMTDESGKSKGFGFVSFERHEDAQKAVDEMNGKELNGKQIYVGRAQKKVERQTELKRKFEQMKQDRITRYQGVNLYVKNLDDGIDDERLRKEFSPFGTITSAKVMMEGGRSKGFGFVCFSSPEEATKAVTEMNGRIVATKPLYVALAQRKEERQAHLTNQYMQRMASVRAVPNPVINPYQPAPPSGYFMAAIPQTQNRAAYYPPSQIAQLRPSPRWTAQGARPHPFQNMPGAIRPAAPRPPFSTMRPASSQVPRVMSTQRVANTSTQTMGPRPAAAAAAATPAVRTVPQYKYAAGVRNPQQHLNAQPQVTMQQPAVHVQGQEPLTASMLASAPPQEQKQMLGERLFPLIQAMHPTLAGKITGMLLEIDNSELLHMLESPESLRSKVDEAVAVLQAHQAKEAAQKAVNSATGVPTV
Assay [23] deals with T3, Polyadenylate-binding protein 1. The experiment in a line: PABP1 MLLE–PAM2 binding inhibitor potency, dose response, biochemical, fluorescence polarization, FITC-PAM2 peptide (AID 602259). It counts as functional. The note with it: read-out: IC50_Mean.
Assay [24] addresses T4, Rac GTPase-activating protein 1 (Homo sapiens, UniProt Q9H0H5).
T4 sequence (Q9H0H5 whole entry): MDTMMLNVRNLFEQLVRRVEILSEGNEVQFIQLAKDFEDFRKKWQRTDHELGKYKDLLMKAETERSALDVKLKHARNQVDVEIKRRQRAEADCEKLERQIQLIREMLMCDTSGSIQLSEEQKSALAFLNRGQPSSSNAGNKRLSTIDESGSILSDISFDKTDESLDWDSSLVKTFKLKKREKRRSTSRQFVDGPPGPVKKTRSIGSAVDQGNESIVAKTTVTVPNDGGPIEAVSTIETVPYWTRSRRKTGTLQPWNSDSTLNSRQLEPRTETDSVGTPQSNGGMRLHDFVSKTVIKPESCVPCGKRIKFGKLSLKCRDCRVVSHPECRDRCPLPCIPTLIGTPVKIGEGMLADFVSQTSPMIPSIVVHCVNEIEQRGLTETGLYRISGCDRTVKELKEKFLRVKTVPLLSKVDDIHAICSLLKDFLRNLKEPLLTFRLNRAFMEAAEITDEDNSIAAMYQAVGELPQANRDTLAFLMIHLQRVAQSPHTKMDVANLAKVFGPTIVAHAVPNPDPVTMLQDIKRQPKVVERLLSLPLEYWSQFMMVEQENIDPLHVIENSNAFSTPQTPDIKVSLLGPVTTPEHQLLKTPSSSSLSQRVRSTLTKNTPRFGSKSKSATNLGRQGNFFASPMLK
Briefly: MgcRacGAP GTPase-activating activity inhibitors, confirmation, biochemical, ADP Hunter fluorescence, primary and confirmatory (AID 624330). The class given is functional.

The next assay concerns the target Caspase-9 (Homo sapiens, UniProt P55211). Briefly: caspase-9 enzyme inhibition, dose response, selectivity assay for caspase-6 inhibitor project, biochemical, fluorescence, plate reader, cherry-picked samples (AID 743293).
The nature of assay [25]: cytotoxicity in OVCAR8 ovarian cancer cells, dose response, PAX8 project, cell-based, plate reader, dry powder samples (AID 743197). The following applies: OVCAR-8. It counts as functional.
A short description of assay [26]: A2780 ovarian cancer cell cytotoxicity, dose response, cytotoxicity control, plate reader, dry powder samples (AID 743046). It counts as functional, cell-based.

Chain of Caspase-7 (P55210 24-198 limits assumed): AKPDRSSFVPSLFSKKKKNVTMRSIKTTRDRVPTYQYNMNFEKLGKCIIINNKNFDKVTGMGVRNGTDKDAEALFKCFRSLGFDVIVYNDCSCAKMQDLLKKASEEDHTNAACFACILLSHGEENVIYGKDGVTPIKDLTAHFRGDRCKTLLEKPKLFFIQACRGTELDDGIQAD
Chain of Caspase-7 (P55210 207-303 limits assumed): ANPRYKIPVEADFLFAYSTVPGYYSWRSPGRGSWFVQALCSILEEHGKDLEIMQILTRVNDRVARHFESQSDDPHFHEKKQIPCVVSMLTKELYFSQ
Chain of Caspase-8 (Q14790 217-374 limits assumed): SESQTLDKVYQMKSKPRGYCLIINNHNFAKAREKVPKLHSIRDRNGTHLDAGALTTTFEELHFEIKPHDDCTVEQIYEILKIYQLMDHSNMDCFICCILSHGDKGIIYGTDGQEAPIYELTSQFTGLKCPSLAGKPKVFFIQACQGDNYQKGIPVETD
Chain of Caspase-8 (Q14790 385-479 limits assumed): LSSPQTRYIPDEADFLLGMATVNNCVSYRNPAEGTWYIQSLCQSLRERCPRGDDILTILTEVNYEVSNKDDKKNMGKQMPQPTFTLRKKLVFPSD
Chain of Caspase-9 (P55211 1-315 limits assumed): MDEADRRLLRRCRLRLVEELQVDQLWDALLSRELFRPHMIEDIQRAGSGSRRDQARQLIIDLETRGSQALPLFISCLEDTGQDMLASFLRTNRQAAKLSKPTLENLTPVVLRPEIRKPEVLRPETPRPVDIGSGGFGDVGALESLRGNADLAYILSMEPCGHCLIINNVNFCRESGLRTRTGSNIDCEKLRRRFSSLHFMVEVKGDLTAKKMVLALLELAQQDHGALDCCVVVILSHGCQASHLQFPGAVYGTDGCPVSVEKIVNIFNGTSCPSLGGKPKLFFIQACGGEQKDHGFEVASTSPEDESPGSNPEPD
Chain of Caspase-9 (P55211 331-416 limits assumed): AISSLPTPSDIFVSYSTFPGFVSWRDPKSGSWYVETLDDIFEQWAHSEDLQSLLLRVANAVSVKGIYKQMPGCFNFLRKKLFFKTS
Chain of Paired box protein Pax-8 (Q06710 whole entry): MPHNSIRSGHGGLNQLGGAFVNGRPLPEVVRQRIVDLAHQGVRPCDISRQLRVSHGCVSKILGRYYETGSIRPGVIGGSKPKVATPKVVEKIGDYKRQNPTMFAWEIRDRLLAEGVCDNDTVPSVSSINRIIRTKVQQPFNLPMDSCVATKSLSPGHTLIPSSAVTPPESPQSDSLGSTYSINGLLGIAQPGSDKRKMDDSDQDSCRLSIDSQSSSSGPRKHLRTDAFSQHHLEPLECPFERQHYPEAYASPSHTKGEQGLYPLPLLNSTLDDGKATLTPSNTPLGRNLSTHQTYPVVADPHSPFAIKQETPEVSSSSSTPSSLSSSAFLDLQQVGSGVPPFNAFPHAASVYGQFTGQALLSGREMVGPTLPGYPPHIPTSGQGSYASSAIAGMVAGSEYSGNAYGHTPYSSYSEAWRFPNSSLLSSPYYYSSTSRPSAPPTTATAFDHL

The term AC50 denotes the concentration at which the activity in the assay is half-maximal. Consider `Nc1cc2c(cc1Br)nc(O)c1ccccc12`, for which the half-maximal activity concentration (AC50) is 22.9 µM (active) in assay [1]; 21.6 µM (active) in [2]; 2.6 µM (active) on Caspase-7; 9.39 µM (active) in [3]; 5.46 µM (active) in assay [4]; 22.9 µM (active) in assay [5]. For the same molecule, the AC50 in assay [6] is 45.8 µM (active); in assay [7] it was 3.76 µM (active); at Caspase-6, 3.87 µM (active); on Caspase-8, 5.26 µM (active).

On to `O=C(Nc1cccc(F)c1)N1CCCCN2[C@H](CO)[C@@H](c3ccc(C#Cc4ccccc4)cc3)[C@H]2C1`, for which the AC50 in assay [8] is 24.4 µM (active); in assay [9] it was 11.6 µM (active); in assay [10] it was 16 µM (active); in [11], 31.1 µM (active); in assay [12] it was 17 µM (active); in assay [13], 21 µM (active). In addition, the half-maximal activity concentration (AC50) was 12.6 µM (active) in [14]; 21.2 µM (active) in [15]; 15.4 µM (active) at Paired box protein Pax-8; 20.8 µM (active) in assay [16]; 15.5 µM (active) in assay [17].

Usually EC50 stands for the concentration that produces a half-maximal response. `Cn1nccc1C(=O)N1CCc2ccccc21`: the EC50 at Transthyretin is > 167 µM (inactive).

On to `COc1ccc(-c2nn(C)c(=O)c3ccccc23)cc1NC(=O)Cn1nc(C)c2ccccc2c1=O`, for which the EC50 in assay [18] was > 60 µM (not active); in assay [19], 1.46 µM (active). For the same molecule, the IC50 on Estrogen receptor is > 50 µM (not active). In addition, the results for the AC50 in assay [20], in assay [7] and in [21] were > 70 µM (inactive), 4.07 µM (active) and 6.21 µM (active), respectively.

Consider `COc1cc(NC(C)CCCNC(C)C)c2ncccc2c1OC` (stereo unspecified), for which the AC50 at Caspase-7 was 23.2 µM (active); at Caspase-9, > 70 µM (inactive); at Caspase-6, 1.52 µM (active). Further, the IC50 was > 66 µM (inactive) in assay [22], 49.3 µM (inactive) in assay [23] and 31.7 µM (active) in [24].

For the molecule `C[C@H]1CN([C@@H](C)CO)C(=O)c2cccc(NC(=O)Nc3ccc(C(F)(F)F)cc3)c2O[C@H]1CN(C)C(=O)NC1CCCCC1`, the AC50 was > 70 µM (inactive) in assay [25] and 11.9 µM (active) in [26].
